Converted amounts (≈) assume the structure as drawn. “And” between values parts separate entries of the source, which are not always exact repeats. Equal entries are not always repeated.
Key:
Experiment in all cases: Antimicrobial activity assay, broth microdilution MIC
Type in all cases: cell-based
[1] = system: Staphylococcus aureus WCUH29; details: others: individual runs; for MIC: Staphylococcus aureus, WCUH29, Examples 24 and 63: median of all results obtained, read-out: MIC, S. aureus WCUH29
Procedure: (§1) Whole-cell antimicrobial activity was determined by broth microdilution using the Clinical and Laboratory Standards Institute (CLSI, formerly NCCLS) recommended methodology (NCCLS Document M7-A6, “Methods for Dilution Susceptibility Tests for Bacteria that Grow Aerobically—Approved Standard Sixth Edition”, 2003). Compounds were tested in serial two-fold dilutions ranging from 64 to 0.06 μg/mL. A panel of 12 strains was evaluated in the assay. This panel consisted of the following laboratory strains: Staphylococcus aureus Oxford, Staphylococcus aureus WCUH29, Enterococcus faecalis 1, Enterococcus faecalis 7, Haemophilus influenzae Q1, Haemophilus influenzae NEMC1, Moraxella catarrhalis 1502, Streptococcus pneumoniae 1629, Streptococcus pneumoniae N1387, Streptococcus pneumoniae Ery2, Escherichia coli 7623 (AcrABEFD+) and Escherichia coli 120 (AcrAB−). The minimum inhibitory concentration (MIC) was determined as the lowest concentration of compound that inhibited visible growth. A mirror reader was used to assist in determining the MIC endpoint.

[2] = system: Moraxella catarrhalis 1502; details: others: individual runs; for MIC: Moraxella catarrhalis, 1502, Examples 24 and 63: median of all results obtained
Procedure: as §1

[3] = system: Streptococcus pneumoniae Ery2; details: Examples 24 and 63: median of all results obtained, others: individual runs, read-out: MIC, S. pneumoniae ERY2
Procedure: as §1

Enterococcus faecalis 7 = details: others: individual runs; for MIC: Enterococcus faecalis, 7, Examples 24 and 63: median of all results obtained, read-out: MIC, E. faecalis 7; for MIC, E. faecalis 7: Examples 24 and 63: median of all results obtained
Procedure: as §1

[4] = system: Streptococcus pneumoniae 1629; details: Examples 24 and 63: median of all results obtained, others: individual runs, read-out: MIC, S. pneumoniae 1629
Procedure: as §1

Enterococcus faecalis 1 = details: others: individual runs; for MIC: Enterococcus faecalis, 1, Examples 24 and 63: median of all results obtained, read-out: MIC, E. faecalis I; for MIC, E. faecalis I: Examples 24 and 63: median of all results obtained
Procedure: as §1

[5] = system: Streptococcus pneumoniae N1387; details: Examples 24 and 63: median of all results obtained, others: individual runs, read-out: MIC, S. pneumoniae N1387
Procedure: as §1

[6] = system: Staphylococcus aureus Oxford; details: Examples 24 and 63: median of all results obtained, others: individual runs; for MIC: Staphylococcus aureus, read-out: MIC, S. aureus Oxford
Procedure: as §1

[7] = system: Escherichia coli 7623 (AcrABEFD+); details: Examples 24 and 63: median of all results obtained; others: individual runs
Procedure: as §1

[8] = Examples 24 and 63: median of all results obtained

Structure (SMILES) | MIC [1] | MIC [2] | MIC [3] | MIC (Enterococcus faecalis 7) | MIC [4] | MIC (Enterococcus faecalis 1) | MIC [5] | MIC [6] | MIC, E. faecalis I (Enterococcus faecalis 1) | MIC, E. faecalis 7 (Enterococcus faecalis 7) | MIC, M. catarrhalis 1502 [2, 8] | MIC, S. aureus Oxford [6] | MIC, E. coli 7623 AcrABEFD+ [7] | MIC, S. aureus WCUH29 [1, 8]
Cc1nc(NNC(=O)[C@H](CC2CCCC2)CN(O)C=O)c(F)c(N2CCN3CCOC[C@@H]3C2)n1 [Example 24, [(2R)-2-(Cyclopentylmethyl)-3-(2-{5-fluoro-6-[(9aS)-hexahydropyrazino[2,1-c][1,4]oxazin-8(1H)-yl]-2-methyl-4-pyrimidinyl}hydrazino)-3-oxopropyl]hydroxyformamide] | 0.375 µg/mL (≈ 0.782 µM) | 0.375 µg/mL (≈ 0.782 µM) | 0.375 µg/mL (≈ 0.782 µM) |  |  |  |  |  |  |  |  |  |  | 
C[C@@H]1CN(C)CCN1c1nc(Cl)nc(NNC(=O)[C@H](CC2CCCC2)CN(O)C=O)c1F [Example 63, [(2R)-3-(2-{2-Chloro-6-[(2R)-2,4-dimethyl-1-piperazinyl]-5-fluoro-4-pyrimidinyl}hydrazino)-2-(cyclopentylmethyl)-3-oxopropyl]hydroxyformamide] | 0.5 µg/mL (≈ 1.06 µM) | 0.125 µg/mL (≈ 0.265 µM) | 0.25 µg/mL (≈ 0.53 µM) | 64 µg/mL (≈ 136 µM) | 0.5 µg/mL (≈ 1.06 µM) | 16 µg/mL (≈ 33.9 µM) | 0.25 µg/mL (≈ 0.53 µM) | 1 µg/mL (≈ 2.12 µM) |  |  |  |  |  | 
Cc1nc(NNC(=O)[C@H](CC2CCCC2)CN(O)C=O)c(F)c(N2CCN(C)C[C@H]2C)n1 [Example 109, [(2R)-2-(Cyclopentylmethyl)-3-(2-{6-[(2R)-2,4-dimethyl-1-piperazinyl]-5-fluoro-2-methyl-4-pyrimidinyl}hydrazino)-3-oxopropyl]hydroxyformamide] | 0.5 µg/mL (≈ 1.11 µM) | 0.25 µg/mL (≈ 0.554 µM) | 0.25 µg/mL (≈ 0.554 µM) | > 64 µg/mL | 0.5 µg/mL (≈ 1.11 µM) | 64 µg/mL (≈ 142 µM) | 0.25 µg/mL (≈ 0.554 µM) | 2 µg/mL (≈ 4.43 µM) | 64, >64 μg/ml |  |  |  |  | 
CN1CCN(c2nc(Cl)nc(NNC(=O)[C@H](CC3CCCC3)CN(O)C=O)c2F)CC12CC2 [Example 172, [(2R)-3-{2-[2-Chloro-5-fluoro-6-(4-methyl-4,7-diazaspiro[2.5]oct-7-yl)-4-pyrimidinyl]hydrazino}-2-(cyclopentylmethyl)-3-oxopropyl]hydroxyformamide] | 0.5 µg/mL (≈ 1.03 µM) |  | 0.125 to 0.25 µg/mL (≈ 0.258 to 0.517 µM) |  | 0.5 µg/mL (≈ 1.03 µM) | 16 µg/mL (≈ 33.1 µM) | 0.125 µg/mL (≈ 0.258 µM) | 1 µg/mL (≈ 2.07 µM) |  | 8 µg/mL and 64 µg/mL | ≤ 0.06 µg/mL and 0.125 µg/mL | 2 µg/mL (≈ 4.13 µM) | 4 µg/mL and 16 µg/mL | 
Cc1nc(NNC(=O)[C@H](CC2CCCC2)CN(O)C=O)c(F)c(N2CCN(C)C3(CC3)C2)n1 [Example 275, ((2R)-2-(Cyclopentylmethyl)-3-{2-[5-fluoro-2-methyl-6-(4-methyl-4,7-diazaspiro[2.5]oct-7-yl)-4-pyrimidinyl]hydrazino}-3-oxopropyl)hydroxyformamide] | 0.5 µg/mL (≈ 1.08 µM) | 0.25 µg/mL (≈ 0.539 µM) | 0.5 µg/mL (≈ 1.08 µM) |  | 1 µg/mL (≈ 2.16 µM) | 32 µg/mL (≈ 69 µM) | 0.5 µg/mL (≈ 1.08 µM) | 2 µg/mL (≈ 4.31 µM) | 64 µg/mL (≈ 138 µM) | 16 µg/mL and 64 µg/mL |  | 4 µg/mL (≈ 8.63 µM) | 4 µg/mL and 16 µg/mL | 1 µg/mL (≈ 2.16 µM)

— patent publication US7893056B2, “Peptide deformylase inhibitors” (GlaxoSmithKline LLC, priority 2007, dated 2011)
